Tested on: SH-SY5Y
Test: Neuroprotection against rotenone/oligomycin A-induced cell death in human SH-SY5Y cells at 1 uM preincubated for 24 hrs followed by rotenone/oligomycin A addition measured after 24 hrs by MTT assay relative to control
Format: functional

For `Cc1[nH]nc2c1C(c1cccnc1)C(C#N)=C(N)O2` (stereo unspecified), the Activity was 57.9%.

From ChEMBL document CHEMBL4270556, “Current progress on antioxidants incorporating the pyrazole core” (Eur J Med Chem, 2018)
